Assay [1] has as its target T1, Alpha-1D adrenergic receptor (Homo sapiens, UniProt P25100).
T1 sequence (P25100 whole entry): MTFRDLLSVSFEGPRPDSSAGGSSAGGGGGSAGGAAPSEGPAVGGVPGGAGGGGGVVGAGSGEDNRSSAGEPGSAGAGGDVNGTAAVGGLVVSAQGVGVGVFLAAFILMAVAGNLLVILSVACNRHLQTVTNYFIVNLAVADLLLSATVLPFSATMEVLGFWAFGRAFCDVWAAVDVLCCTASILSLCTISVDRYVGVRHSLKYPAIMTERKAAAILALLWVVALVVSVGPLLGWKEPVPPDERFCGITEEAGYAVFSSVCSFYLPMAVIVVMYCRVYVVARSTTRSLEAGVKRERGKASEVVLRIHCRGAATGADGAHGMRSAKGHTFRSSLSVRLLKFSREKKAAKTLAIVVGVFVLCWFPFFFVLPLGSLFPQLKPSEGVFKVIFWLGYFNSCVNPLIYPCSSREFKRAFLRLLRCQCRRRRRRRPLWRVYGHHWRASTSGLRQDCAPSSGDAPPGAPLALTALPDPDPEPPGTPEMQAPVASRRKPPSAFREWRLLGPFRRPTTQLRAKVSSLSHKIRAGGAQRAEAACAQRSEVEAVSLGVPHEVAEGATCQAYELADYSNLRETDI

In assay [2] the target is T2, Alpha-1B adrenergic receptor (Homo sapiens, UniProt P35368).
T2 sequence (P35368 whole entry): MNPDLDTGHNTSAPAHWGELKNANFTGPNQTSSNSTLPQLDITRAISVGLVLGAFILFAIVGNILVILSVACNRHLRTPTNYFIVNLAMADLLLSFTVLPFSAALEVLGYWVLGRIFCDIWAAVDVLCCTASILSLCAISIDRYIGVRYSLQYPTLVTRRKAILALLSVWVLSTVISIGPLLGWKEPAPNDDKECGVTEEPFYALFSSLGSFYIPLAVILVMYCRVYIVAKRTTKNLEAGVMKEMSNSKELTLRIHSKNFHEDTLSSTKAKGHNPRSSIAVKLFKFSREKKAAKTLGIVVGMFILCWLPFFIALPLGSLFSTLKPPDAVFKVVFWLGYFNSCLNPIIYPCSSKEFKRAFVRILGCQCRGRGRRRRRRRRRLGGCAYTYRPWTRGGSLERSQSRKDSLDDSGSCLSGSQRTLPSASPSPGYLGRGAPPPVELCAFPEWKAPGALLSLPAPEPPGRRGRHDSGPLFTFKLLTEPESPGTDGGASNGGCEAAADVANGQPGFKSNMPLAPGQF

What is called Ki is the dissociation constant of the complex between target and ligand, obtained from inhibition or displacement. High values mean a looser hold on the target, low ones a stronger hold on the target.

Consider `CCOc1ccccc1OCCNC(C)Cc1ccc(OC)c(S(N)(=O)=O)c1` (configuration not stated) [NSC_60147], for which the values for the Ki in assay [1] and in assay [2] were 0.2 nM and 2 nM, respectively.

These data come from BindingDB's records for doi:10.1016/j.bmcl.2007.11.068 (Johnson & Johnson Pharmaceutical Research and Development, 2008).
